For test [1], the target named is T1, mPTPB (Mycobacterium tuberculosis, UniProt I6WXK4).
T1 construct: The full-length mPTPB with a N-terminal His6-tag was expressed and purified; His6 (N); made in house; host or cells: E. coli BL21/DE3 (pET28b-mPTPB)
T1 sequence (I6WXK4 1-276): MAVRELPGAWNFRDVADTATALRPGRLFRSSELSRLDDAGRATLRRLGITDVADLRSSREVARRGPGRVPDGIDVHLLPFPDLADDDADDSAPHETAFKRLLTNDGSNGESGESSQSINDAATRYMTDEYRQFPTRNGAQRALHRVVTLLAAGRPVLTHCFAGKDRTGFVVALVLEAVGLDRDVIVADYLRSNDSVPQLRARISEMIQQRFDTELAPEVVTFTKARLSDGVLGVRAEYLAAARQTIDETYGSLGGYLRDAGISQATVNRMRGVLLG
The experiment in a line: biochemical. The test is classed as biochemical.

In test [2] the target is mPTPA (Mycobacterium tuberculosis, UniProt P9WIA1). The experiment in a line: PTP selectivity panel: mPTPA. Format: biochemical.
Test [3] deals with ERK1/2 phosphorylation in Raw264.7 cells expressing mPTPB. The test is described as follows: ERK phosphorylation in macrophage cells expressing mPTPB (western blot). The test is classed as cell-based, mouse. The settings on record: IFN-γ, L01Z08 especially at 120 and 240 nM. How it is done: As explained above, ERK phosphorylation is important in the cellular secretion pathway of IL-6. However, mPTPB blocks or inhibits the phosphorylation of ERK which reduces and potentially prevents IL-6 secretion altogether.
Raw264.7 mouse macrophages were cultured in Dulbecco's modified Eagle's medium (DMEM) supplemented with 10% FBS (Invitrogen), penicillin (50 units/mL), and streptomycin (50 μg/mL) under a humidified atmosphere containing 5% CO2 at 37° C. Transfected Raw264.7 cells (Vector, WT-mPTPB) were seeded in a 12-well plate at a density of 4×10^4 cells/well. The following day cells were treated with mPTPB inhibitor 213a for 1 hr, then stimulated with IFN-γ (200 U/ml) for 1 h. […]. Wash with ice-cold phosphate buffered saline, and lysed with lysis buffer on ice for 30 min. Cell lysate is then cleared by centrifuging at 13,000 rpm for 15 min. The phosphorylation of ERK1/2 and Akt was detected by western blotting.

Test [4] relates to Akt phosphorylation in Raw264.7 cells expressing mPTPB. Format: cell-based, mouse. The following applies: macrophage cells expressing mPTPB, increasing concentrations.

“Also recorded” adds a separate entry of the source.

mPTPA, sequence (P9WIA1 whole entry): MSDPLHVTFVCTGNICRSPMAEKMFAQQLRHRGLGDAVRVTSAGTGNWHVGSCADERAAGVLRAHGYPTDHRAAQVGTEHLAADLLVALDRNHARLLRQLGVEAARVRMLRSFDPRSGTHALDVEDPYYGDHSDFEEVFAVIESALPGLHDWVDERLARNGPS

In the case of `Cn1c(-c2ccccc2C(F)(F)F)c(C(=O)CCNC(=O)c2cc(Br)cc(Br)c2)c2cc(C(=O)O)c(O)cc21` [Compound 213a, 3-(3-(3,5-dibromobenzamido)propanoyl)-6-hydroxy-1-methyl-2-(2-(trifluoromethyl)phenyl)-1H-indole-5-carboxylic acid], the “more potent than parent compound 207a” value in test [1] is 14 fold. For the same compound, the “more selective than parent compound 207a” value in test [1] came to 43 fold. The “In % @ 1 μM (mPTPB)” value in test [1] (1 μM, library 13 screened in situ) turned out to be 81%. Also, the “mode of mPTPB inhibition” value in test [1] (kinetic analyses, Lineweaver-Burk plot) was “Non-competitive inhibitor; also recorded: reversible and noncompetitive inhibitor”. In test [1] (pH 7.0, 25° C.), the affinity, expressed as Ki, was 0.05 ± 0.002 µM. Besides, the concentration for half-maximal inhibition (IC50) amounted to 0.079 ± 0.01 µM in test [1] (pNPP substrate, pH 7.0, 25° C., read-out: IC50 (μM) against mPTPB) and 10.9 ± 0.5 µM in test [2]. In addition, the “selectivity for mPTPB over the other ten PTPs” value in test [1] (panel of 11 PTPs) is recorded as “over 90 fold”. Besides, the “ERK phosphorylation / ERK1/2 activity” value in test [3] is listed as “restore ERK1/2 activity; also recorded: increased the ERK activity”. The “AKT phosphorylation / Akt activation” value in test [4] is “blocks Akt activation; also recorded: decreased the Akt activity”.

Source of the values: patent US9493436B2, “Tyrosine phosphatase inhibitors and uses thereof to modulate the activity of enzymes involved in the pathology of Mycobacterium tuberculosis” (priority 2011, dated 2016).
